In US6465395B2, “Substituted methylene pyrazolinones and the herbicidal use thereof” (BASF Aktiengesellschaft, priority 2000, dated 2002):

Experiments:
Test in all cases: Postemergence herbicidal evaluation
Assay type in all cases: in vivo
Set-up in all cases: scale not given here
[1] = system: SETVI, Foxtail, Green, Setaria viridis, (L.) Beau
Method: (§1) The postemergence herbicidal activity of the compounds of the present invention is evaluated by the following tests. Seedling plants are grown in jiffy flats for about two weeks. The test compounds are dispersed in 80/20 (v/v) acetone/water mixtures containing 1.0% SUN-IT®II, a methylated seed oil, in sufficient quantities to provide the equivalent of about 0.006 kg/ha to 0.800 kg/ha of active compound when applied to the plants through a spray nozzle operating at 40 psi for a predetermined time. After spraying, the plants are placed on greenhouse benches and are cared for in accordance with conventional greenhouse procedures. Approximately two to three weeks after treatment, the seedling plants are examined and rated according to the rating system set forth below. Where more than one test is involved for a given compound, the data are averaged.

[2] = system: AMBEL, Ragweed, Ambrosia artemisifolia, L.
Method: as §1

[3] = system: ECHCG, Barnyardgrass, Echinochloa crus-galli, (L.) Beau
Method: as §1

[4] = system: CHEAL, Lambsquarters, Chenopodium album, L.
Method: as §1

[5] = system: ABUTH, Velvetleaf, Abutilon theophrasti, Medic.
Method: as §1

[6] = system: ZEAMX, Corn, Field, Zea mays, L.; conditions: crop (corn)
Method: as §1

| Structure (SMILES) | Herbicide rating SETVI ([1]; 0.0125 kg/ha) | Herbicide rating SETVI ([1]; 0.0250 kg/ha) | Herbicide rating SETVI ([1]; 0.0500 kg/ha) | Herbicide rating SETVI ([1]; 0.1000 kg/ha) | Herbicide rating AMBEL ([2]; 0.0125 kg/ha) | Herbicide rating AMBEL ([2]; 0.0250 kg/ha) | Herbicide rating AMBEL ([2]; 0.0500 kg/ha) | Herbicide rating AMBEL ([2]; 0.1000 kg/ha) | Herbicide rating ECHCG ([3]; 0.0125 kg/ha) | Herbicide rating ECHCG ([3]; 0.0250 kg/ha) | Herbicide rating ECHCG ([3]; 0.0500 kg/ha) | Herbicide rating ECHCG ([3]; 0.1000 kg/ha) | Herbicide rating CHEAL ([4]; 0.0125 kg/ha) | Herbicide rating CHEAL ([4]; 0.0250 kg/ha) | Herbicide rating CHEAL ([4]; 0.0500 kg/ha) | Herbicide rating CHEAL ([4]; 0.1000 kg/ha) | Herbicide rating ABUTH ([5]; 0.0125 kg/ha) | Herbicide rating ABUTH ([5]; 0.0250 kg/ha) | Herbicide rating ABUTH ([5]; 0.0500 kg/ha) | Herbicide rating ABUTH ([5]; 0.1000 kg/ha) | other results |
| --- | --- | --- | --- | --- | --- | --- | --- | --- | --- | --- | --- | --- | --- | --- | --- | --- | --- | --- | --- | --- | --- |
| Cc1c(C(=C2C=NN(C)C2=O)N(C)C)ccc2c1C(C)(C)CS2(=O)=O [Example 2, 4-[(Z)-(2,3-Dihydro-3,3,4-trimethylbenzo[b]thien-5-yl)(dimethylamino)methylene]-1-methyl-2-pyrazolin-5-one S,S-dioxide] | 0.0 | 0.0 | 0.0 | 0.0 | 0.0 | 0.0 | 0.0 | 0.0 | 0.0 | 0.0 | 0.0 | 0.0 | 0.0 | 0.0 | 0.0 | 0.0 | 0.0 | 0.0 | 0.0 | 0.0 | Herbicide rating ZEAMX ([6]; 0.0125 kg/ha): 0.0; Herbicide rating ZEAMX ([6]; 0.0250 kg/ha): 0.0; Herbicide rating ZEAMX ([6]; 0.0500 kg/ha): 0.0; Herbicide rating ZEAMX ([6]; 0.1000 kg/ha): 0.0 |
| COc1ccc(OC(=C2C=NN(C)C2=O)c2ccc3c(c2C)C(C)(C)CS3(=O)=O)cc1 [Example 3, 4-[(Z)-(2,3-Dihydro-3,3,4-trimethylbenzo-[b]thien-5-yl)(p-methoxyphenoxy)methylene]-1-methyl-2-pyrazolin-5-one, S,S-dioxide] | 1.0 | 3.0 | 5.0 | 7.0 | 2.0 | 4.0 | 7.0 | 7.0 | 2.0 | 3.0 | 4.0 | 6.0 | 6.0 | 6.0 | 8.0 | 9.0 | 2.0 | 4.0 | 7.0 | 7.0 | Herbicide rating ZEAMX ([6]; 0.0125 kg/ha): 0.0; Herbicide rating ZEAMX ([6]; 0.0250 kg/ha): 0.0; Herbicide rating ZEAMX ([6]; 0.0500 kg/ha): 0.0; Herbicide rating ZEAMX ([6]; 0.1000 kg/ha): 2.0 |
